Patent US11572399B2, “Long-acting GIP peptide analogues” (University of Copenhagen, priority 2017, dated 2023)
Several values for one entry are separate records, joined by “and”; a condition that tells them apart may be missing. Equal values may be shown once. Read-outs that look alike come from different tables or passages of the source. Peptide text beside a SMILES is read from it. * marks the point of attachment. C16 diacid = O=C(O)CCCCCCCCCCCCCCC(=O)*; Palmitoyl = CCCCCCCCCCCCCCCC(=O)*

Assays:
human GIP receptor [1] = molecular target: T1, human GIP receptor (Homo sapiens, UniProt P48546); assay: cAMP accumulation assay, agonism (ligand alone); assay type: cell-based; conditions: Table 1; for Emax: COS-7, intrinsic cAMP activity
T1 construct: host or cells: COS-7, transient transfection (calcium phosphate), cDNA in pCMV-Script
T1 sequence (P48546 22-466): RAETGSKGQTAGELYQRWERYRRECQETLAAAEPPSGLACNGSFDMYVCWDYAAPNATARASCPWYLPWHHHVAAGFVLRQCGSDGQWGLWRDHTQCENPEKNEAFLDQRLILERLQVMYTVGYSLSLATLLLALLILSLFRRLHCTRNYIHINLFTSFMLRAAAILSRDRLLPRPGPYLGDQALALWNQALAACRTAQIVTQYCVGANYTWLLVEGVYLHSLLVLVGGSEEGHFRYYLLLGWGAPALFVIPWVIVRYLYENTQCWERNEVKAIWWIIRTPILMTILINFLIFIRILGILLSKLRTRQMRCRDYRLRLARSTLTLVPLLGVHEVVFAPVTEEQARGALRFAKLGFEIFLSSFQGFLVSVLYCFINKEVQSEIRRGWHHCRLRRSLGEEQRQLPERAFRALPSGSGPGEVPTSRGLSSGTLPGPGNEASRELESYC

human GIP receptor [2] = molecular target: T1, human GIP receptor; assay: cAMP accumulation assay, antagonism of a GIP-mediated cAMP response (50-80% of max); assay type: cell-based; conditions: for Fold change of IC50 versus GIP(5-30)NH2: fold change of IC50 from GIP(5-30)NH2; for cAMP - antagonisme fold (paired): fold vs GIP(3-30)NH2
Method: The day after, the cells were washed twice with Hepes buffered saline (HBS) buffer and incubated with HBS and 1 mM 3-isobutyl-1-methylxanthine (IBMX) for 30 min at 37° C. […] The HitHunter™ cAMP XS assay (DiscoveRx) was carried out according to the manufacturer's instructions.

human GIP receptor [3] = molecular target: T1, human GIP receptor; assay: 125I-human GIP competition binding assay, in the presence and absence of 2% HSA; conditions: for Fold change HSA (2%)/Casein (0.1%): IC50 (plus HSA)/IC50 (minus HSA); for Binding (+/−HSA) Fold: fold change +HSA/−HSA; for Binding fold (paired): fold decrease in affinity compared to GIP(3-30)NH2;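 for all read-outs here: nonspecific binding taken as radioligand bound to untransfected cells, IC50 obtained from nonlinear regression fits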
[4] = transiently transfected COS-7 cells, Table 1 and text, read-out: cAMP antagonism nM (IC50, antagonistic potency)
[5] = heterologous competition binding, transiently transfected COS-7 cells expressing the human GIP receptor, log value of the nM column, read-out: Binding log (converted)
[6] = binding in 0.1% casein (absence of HSA), log value, read-out: logIC50 0.1% casein (converted)
[7] = heterologous competition binding, transiently transfected COS-7 cells expressing the human GIP receptor, read-out: Binding
[8] = COS-7 cells, read-out: cAMP agonism nM (EC50)
[9] = Table 3b, initial data, read-out: Binding IC50

| Compound | Emax (human GIP receptor [1]; COS-7 cells) [%] | Fold change of IC50 versus GIP(5-30)NH2 (human GIP receptor [2]) | IC50 (human GIP receptor [2]; [4]) [nM] | Fold change HSA (2%)/Casein (0.1%) (human GIP receptor [3]) | Binding (+/−HSA) Fold (human GIP receptor [3]) | IC50 (human GIP receptor [3]; [5]) | IC50 (human GIP receptor [3]; [6]) [nM] | IC50 (human GIP receptor [3]; [7]) [nM] | EC50 (human GIP receptor [1]; [8]) [nM] | cAMP - antagonisme fold (paired) (human GIP receptor [2]; Table 3b) [fold] | IC50 (human GIP receptor [3]; [9]) [nM] | Binding fold (paired) (human GIP receptor [3]; Table 3b) [fold] | also measured |
| --- | --- | --- | --- | --- | --- | --- | --- | --- | --- | --- | --- | --- | --- |
| CC[C@H](C)[C@H](NC(=O)[C@H](CO)NC(=O)[C@H](Cc1ccc(O)cc1)NC(=O)[C@H](CC(=O)O)NC(=O)[C@H](CO)NC(=O)[C@@H](NC(=O)[C@H](Cc1ccccc1)NC(=O)[C@@H](N)[C@@H](C)O)[C@@H](C)CC)C(=O)N[C@@H](C)C(=O)N[C@@H](CCSC)C(=O)N[C@@H](CC(=O)O)C(=O)N[C@@H](CCCCN)C(=O)N[C@H](C(=O)N[C@@H](Cc1c[nH]cn1)C(=O)N[C@@H](CCC(N)=O)C(=O)N[C@@H](CCC(N)=O)C(=O)N[C@@H](CC(=O)O)C(=O)N[C@@H](Cc1ccccc1)C(=O)N[C@H](C(=O)N[C@@H](CC(N)=O)C(=O)N[C@@H](Cc1c[nH]c2ccccc12)C(=O)N[C@@H](CCCCNC(=O)CCCCCCCCCCCCCCC(=O)O)C(=O)N[C@@H](CC(C)C)C(=O)N[C@@H](C)C(=O)N[C@@H](CCC(N)=O)C(=O)N[C@@H](CCCCN)C(N)=O)C(C)C)[C@@H](C)CC [AT186, [hGIP(5-30)NH2[L26K]-C16diacid/26]] (H-TFISDYSIAMDKIHQQDFVNWK(C16 diacid)LAQK-NH2; N-terminus assumed) | 0 | 2.6 | 79 | 3.8 | 7.9 | 158 nM and 144 nM | – | – | – | – | – | – | Ki (human GIP receptor [3]; absence of HSA): 105 nM |
| CC[C@H](C)[C@H](NC(=O)[C@H](CO)NC(=O)[C@H](CCCCNC(=O)CCCCCCCCCCCCCCC(=O)O)NC(=O)[C@H](CC(=O)O)NC(=O)[C@H](CO)NC(=O)[C@@H](NC(=O)[C@H](Cc1ccccc1)NC(=O)[C@@H](N)[C@@H](C)O)[C@@H](C)CC)C(=O)N[C@@H](C)C(=O)N[C@@H](CCSC)C(=O)N[C@@H](CC(=O)O)C(=O)N[C@@H](CCCCN)C(=O)N[C@H](C(=O)N[C@@H](Cc1c[nH]cn1)C(=O)N[C@@H](CCC(N)=O)C(=O)N[C@@H](CCC(N)=O)C(=O)N[C@@H](CC(=O)O)C(=O)N[C@@H](Cc1ccccc1)C(=O)N[C@H](C(=O)N[C@@H](CC(N)=O)C(=O)N[C@@H](Cc1c[nH]c2ccccc12)C(=O)N[C@@H](CC(C)C)C(=O)N[C@@H](CC(C)C)C(=O)N[C@@H](C)C(=O)N[C@@H](CCC(N)=O)C(=O)N[C@@H](CCCCN)C(N)=O)C(C)C)[C@@H](C)CC [AT172, [hGIP(5-30)NH2[Y10K]-C16diacid/10]] (H-TFISDK(C16 diacid)SIAMDKIHQQDFVNWLLAQK-NH2; N-terminus assumed) | 0 | 14.1 | – | 3.8 | 2.8 | – | 251 | 252 | – | – | – | – | IC50 (human GIP receptor [3]; binding in presence of 2% HSA, read-out: logIC50 2% HSA (converted)): 955 nM |
| CC[C@H](C)[C@H](NC(=O)[C@H](CO)NC(=O)[C@H](Cc1ccc(O)cc1)NC(=O)[C@H](CC(=O)O)NC(=O)[C@H](CO)NC(=O)[C@@H](NC(=O)[C@H](Cc1ccccc1)NC(=O)[C@@H](NC(=O)CCCCCCCCCCCCC(=O)O)[C@@H](C)O)[C@@H](C)CC)C(=O)N[C@@H](C)C(=O)N[C@@H](CCSC)C(=O)N[C@@H](CC(=O)O)C(=O)N[C@@H](CCCCN)C(=O)N[C@H](C(=O)N[C@@H](Cc1c[nH]cn1)C(=O)N[C@@H](CCC(N)=O)C(=O)N[C@@H](CCC(N)=O)C(=O)N[C@@H](CC(=O)O)C(=O)N[C@@H](Cc1ccccc1)C(=O)N[C@H](C(=O)N[C@@H](CC(N)=O)C(=O)N[C@@H](Cc1c[nH]c2ccccc12)C(=O)N[C@@H](CC(C)C)C(=O)N[C@@H](CC(C)C)C(=O)N[C@@H](C)C(=O)N[C@@H](CCC(N)=O)C(=O)N[C@@H](CCCCN)C(N)=O)C(C)C)[C@@H](C)CC [AT136, [hGIP(5-30)NH2—C14diacid/5]] | 20 | – | – | 15.7 | – | – | 50.1 | – | 8 | – | – | – | Ability to antagonize the GIP-mediated cAMP response (in words) (human GIP receptor [2]): high potent antagonists; Affinity compared to GIP(3-30)NH2 (in words) (human GIP receptor [3]): affinities in the same range as GIP(3-30)NH2; Fold change in affinity, IC50 (plus HSA)/IC50 (minus HSA) (human GIP receptor [3]; presence vs absence of 2% HSA, proxy for albumin binding): 15.7 fold |
| CCCCCCCCCCCCCCCC(=O)NCCCC[C@H](NC(=O)[C@H](CCC(=O)O)NC(=O)[C@H](CCSC)NC(=O)[C@H](C)NC(=O)[C@@H](NC(=O)[C@H](CO)NC(=O)[C@H](Cc1ccc(O)cc1)NC(=O)[C@H](CC(=O)O)NC(=O)[C@H](CO)NC(=O)[C@@H](NC(=O)[C@H](Cc1ccccc1)NC(=O)[C@@H](NC(=O)CNC(=O)[C@@H](N)CCC(=O)O)[C@@H](C)O)[C@@H](C)CC)[C@@H](C)CC)C(=O)N[C@H](C(=O)N[C@@H](C)C(=O)N[C@@H](CCC(N)=O)C(=O)N[C@@H](CCC(N)=O)C(=O)N[C@@H](CC(=O)O)C(=O)N[C@@H](Cc1ccccc1)C(=O)N[C@H](C(=O)N[C@@H](CC(N)=O)C(=O)N[C@@H](Cc1c[nH]c2ccccc12)C(=O)N[C@@H](CC(C)C)C(=O)N[C@@H](CC(C)C)C(=O)N[C@@H](C)C(=O)N[C@@H](CCC(N)=O)C(=O)N[C@@H](CCCCN)C(N)=O)C(C)C)[C@@H](C)CC [AT131, [hGIP(3-30)NH2[D15E; H18A]-C16/16]] (H-EGTFISDYSIAMEK(Palmitoyl)IAQQDFVNWLLAQK-NH2; N-terminus assumed) | 35 | – | – | – | – | – | – | 6510 | – | 1.1 | 6510 | 49 | IC50 (human GIP receptor [2]; Table 3b, initial data, read-out: cAMP - antagonisme IC50): 65 nM; IC50 (human GIP receptor [2]; given as log IC50 (negative sign), transiently transfected COS-7 cells, Table 1, read-out: cAMP antagonism log (converted)): 39.8 nM |
| CCCCCCCCCCCCCCCC(=O)NCCCC[C@H](NC(=O)[C@H](CCC(=O)O)NC(=O)[C@H](CCSC)NC(=O)[C@H](C)NC(=O)[C@@H](NC(=O)[C@H](CO)NC(=O)[C@H](Cc1ccc(O)cc1)NC(=O)[C@H](CC(=O)O)NC(=O)[C@H](CO)NC(=O)[C@@H](NC(=O)[C@H](Cc1ccccc1)NC(=O)[C@H](Cc1c[nH]c2ccccc12)NC(=O)CNC(=O)[C@@H](N)CCC(=O)O)[C@@H](C)CC)[C@@H](C)CC)C(=O)N[C@H](C(=O)N[C@@H](C)C(=O)N[C@@H](CCC(N)=O)C(=O)N[C@@H](CCC(N)=O)C(=O)N[C@@H](CC(=O)O)C(=O)N[C@@H](Cc1ccccc1)C(=O)N[C@H](C(=O)N[C@@H](CC(N)=O)C(=O)N[C@@H](Cc1c[nH]c2ccccc12)C(=O)N[C@@H](CC(C)C)C(=O)N[C@@H](CC(C)C)C(=O)N[C@@H](C)C(=O)N[C@@H](CCC(N)=O)C(=O)N[C@@H](CCCCN)C(N)=O)C(C)C)[C@@H](C)CC [AT107, [hGIP(3-30)NH2[T5W; D15E; H18A]-C16/16]] (H-EGWFISDYSIAMEK(Palmitoyl)IAQQDFVNWLLAQK-NH2; N-terminus assumed) | 23 | – | – | – | – | – | – | 5220 | 1300 | 3.1 | 5220 | 186 | – |
| CC[C@H](C)[C@H](NC(=O)[C@H](CO)NC(=O)[C@H](Cc1ccc(O)cc1)NC(=O)[C@H](CC(=O)O)NC(=O)[C@H](CO)NC(=O)[C@@H](NC(=O)[C@H](Cc1ccccc1)NC(=O)[C@@H](N)[C@@H](C)O)[C@@H](C)CC)C(=O)N[C@@H](C)C(=O)N[C@@H](CCSC)C(=O)N[C@@H](CC(=O)O)C(=O)N[C@@H](CCCCN)C(=O)N[C@H](C(=O)N[C@@H](Cc1c[nH]cn1)C(=O)N[C@@H](CCC(N)=O)C(=O)N[C@@H](CCC(N)=O)C(=O)N[C@@H](CC(=O)O)C(=O)N[C@@H](Cc1ccccc1)C(=O)N[C@H](C(=O)N[C@@H](CC(N)=O)C(=O)N[C@@H](Cc1c[nH]c2ccccc12)C(=O)N[C@@H](CC(C)C)C(=O)N[C@@H](CC(C)C)C(=O)N[C@@H](C)C(=O)N[C@@H](CCCCNC(=O)CCCCCCCCCCCCCCC(=O)O)C(=O)N[C@@H](CCCCN)C(N)=O)C(C)C)[C@@H](C)CC [AT189, [hGIP(5-30)NH2[Q29K]-C16diacid/29]] (H-TFISDYSIAMDKIHQQDFVNWLLAK(C16 diacid)K-NH2; N-terminus assumed) | 12 | 3.0 | 79 | 3.2 | 3.2 | 126 nM and 118 nM | – | – | – | – | – | – | EC50 (human GIP receptor [1]; given as log EC50 (negative sign), read-out: cAMP agonism EC50 (log) (converted)): 100 nM and 79.4 nM |
